Data set [1] has as its system human prostate cancer cells (PC3). The experiment in a line: Cytotoxicity by SRB assay, PC3 cells. It counts as cell-based. The following applies: 72 h, 0.01 μM to 100 μM. As to the method: (§1) The human prostate cancer cells (PC3) and human osteosarcoma cells (MG-63) were obtained from Nawah Scientific Inc. (Mokatam, Cairo, Egypt) and cultured in DMEM (Dulbecco's modified eagle's medium), Gibco, USA, supplemented with fetal bovine serum (FBS) at a concentration of 10% and 100 U/mL of penicillin and streptomycin (PS). The Cells were incubated at 37° C. in a humidified environment that contained 5% CO2.
(§2) Cells were seeded in 96-well plates as aliquots of 100 μL cell suspension and incubated in a complete media for 24 h. Afterward, cells were treated with 2-(1-(2-hydroxypropyl)-4,5-diphenyl-1H-imidazol-2-yl)pyridine at diverse concentrations ranging from 0.01 μM to 100 μM for 72 h. Then, cells were fixed at 4° C. for one hour with 150 μL of 10% trichloroacetic acid (TCA). After washing the cells five times with distilled water, 70 μL of sulforhodamine (SRB) solution (0.4% w/v) was added and incubated for 10 min at room temperature in a dark place. […] Then, 150 μL of Tris pH 10.5 (10 mM) was added, and the absorbance was measured at 540 nm using a BMG LABTECH®-FLUOstar Omega microplate reader (Ortenberg, Germany). Half maximal inhibitory concentrations (IC50) values were calculated for each experiment using GraphPad Prism 6 software. […]
(§3) The inhibition was calculated using the following equation: Inhibition %=100−Average Viability
Background: Sulforhodamine B stains cellular protein and so reports cell mass.

The subject of data set [2] is human osteosarcoma cells (MG-63). The experiment in a line: Cytotoxicity by SRB assay, MG-63 cells. It counts as cell-based. Conditions: 72 h, 0.01 μM to 100 μM. On the procedure:
as §1, §2, §3

With `CN(C)CCCn1c(-c2cccnc2)nc(-c2ccccc2)c1-c1ccccc1` [3-(4,5-Diphenyl-2-(pyridin-3-yl)-1H-imidazol-1-yl)-N,N-dimethylpropan-1-amine], the melting point (as a rule, the temperature, or range, at which the solid turns liquid) fell in the range of 145 to 147 °C. Moreover, in data set [1], the antiproliferative activity result was “excellent antiproliferative activities”. For the same molecule, the antiproliferative activity entry in data set [2] was “excellent antiproliferative activities”.
